Data taken from PMC9698773, “Design, Synthesis, Molecular Modeling, and Anticancer Evaluation of New VEGFR-2 Inhibitors Based on the Indolin-2-One Scaffold” (Pharmaceuticals, 2022).
“And” between values parts separate entries of the source, which are not always exact repeats. Equal entries are not always repeated.

Columns and labels:
[1] = system: HepG2 cells; test: Apoptosis analysis (Annexin V-FITC/PI, flow cytometry); assay type: cell-based, human; settings: HepG2, 1.13 µM, 24 h
Method: The HepG2 cells were treated with 17a (1.13 µM for 24 h), and the apoptotic effect was determined using Annexin V-FITC/PI assay. […] In addition, 17a enhanced the necrosis percentage 4-fold more than the control.
The apoptotic ability of compound 17a to the HepG2 cells was assessed using Annexin V-FITC/PI dual staining by flow cytometric analysis, as shown in the Supplementary Materials. […]
4.2.3. Cell cycle analysis […]
4.2.4. Apoptosis analysis
Flow cytometry cell apoptosis analysis was used to investigate the apoptotic effect of the synthesized compounds. HepG2 cells were treated with compound 17a (1.13 μM) for 24 h, collected by trypsin, centrifuged, washed two successive times with PBS, suspended in 500 μL binding buffer, and double stained with 5 μL Annexin V‐FITC and 5 μL PI in the dark at room temperature for 15 min. The stained cells were measured using a BD FACSCalibur™ Flow Cytometer and analyzed using Flowing software. […]

[2] = system: caspase-3; test: Caspase-3 expression assay (quantitative real-time PCR); assay type: cell-based, human; settings: HepG2, 1.13 µM, 24 h; control = 1
Method: The gene expression fold change of caspase-3 and -9 in the HepG2 cells treated with 1.13 µM of compound 17a for 24 h was determined using quantitative real-time PCR analysis.
The expression of caspase-3 and -9 in the liver HepG2 cells treated with 1.13 μM of 17a was determined using quantitative real-time PCR analysis, as presented in the Supplementary Materials.
Pharmaceuticals 2022, 15, x FOR PEER REVIEW 3 of 22
Figure S1. Simple linear regression for the correlation between cytotoxicity against HepG2 cell line […]
Figure S2. Simple linear regression for the correlation between cytotoxicity against MCF‐7 cell line […]
4.2.3. Cell cycle analysis
To determine the role of the synthesized compounds in cell cycle distribution, cell cycle analysis was performed using propidium iodide (PI) staining and flow cytometry analysis for compound 17a. […] The stained cells were measured using a BD FACSCalibur™ Flow Cytometer, and the data were analyzed using Flowing software (version 2.5.1, Turku Centre for Biotech‐ […]
Flow cytometry cell apoptosis analysis was used to investigate the apoptotic effect of the synthesized compounds. […] The stained cells were measured using a BD FACSCalibur™ Flow Cytometer and analyzed using Flowing software. […]
The expression of BAX and Bcl‐2 proteins were determined using Western blot anal‐ ysis. […]

## O=C1Nc2ccccc2C1=Nc1ccc(C(=O)NNC(=S)Nc2ccccc2)cc1 [Compound 17a, 2-(4-((2-Oxoindolin-3-ylidene)amino)benzoyl)-N-phenylhydrazinecarbothioamide]
[1]
  Apoptosis Early: 33.86%
  Apoptosis Late: 7.99%
  Apoptosis Total: 46.38%
  Necrosis: 4.53%
  increase of necrosis percentage versus control: 4 fold
[2]
  Gene Expression Fold Change (Normalized to β-Actin) Caspases-3: 6.88 fold and 6.9 fold and 6.889 fold
